Entries after “also recorded” stand apart in the source; their conditions may differ.
How the values were obtained:
Assay type in all cases: in vivo, Korean native cattle
[1] = tested on: Korean native steers; assay: Body weight, average daily gain and feed conversion ratio according to NALT feeding under cold stress conditions
Description: In the present disclosure, 8 Korean native steers (8.3±0.72 months old on average) were selected and used. […] Analysis of chemical composition (moisture, crude protein, crude fat, crude ash, etc.) and amino acids (19 types) of the basal diet stored at −20° C. was performed, and the results are shown in Table 3. After grouping the animals by statistical analysis of initial body weights, the animals were bred in 1.0×1.5 m^2 individual pens during the experiment period. The feed was offered based on an amount of dry matter of daily total mixed ration (TMR) per head. After 7 days of an adaptation period for N-acetyl-L-tryptophan (NALT), a mixture of 0.1% N-acetyl-L-tryptophan (NALT) and the total mixed ration was fed to individual animals every morning at 8 a.m. for 6 weeks, and water was available ad libitum. Total amounts of L-tryptophan ingested by the control and NALT-treated group by feeding NALT were 7.37 g/day/head and 16.26 g/day/head, respectively. The experiment was performed such that the NALT-treated group ingested 8.89 g/day/head more L-tryptophan than that of the control. Meanwhile, results of growth performance analysis (body weight and average feed intake) and genetic analysis of loin tissue were obtained by statistically comparing and analyzing significant differences between the control and the NALT-treated group, and results of hematological analysis were obtained via statistical comparison and analysis depending on NALT treatment, experiment period (days), and interaction (treatment×days). These numerical values were expressed as average values, and a significance test was performed at the 5% level using Student's t-test by using the JMP 5.0 software package (SAS Institute Inc., Cary, NC, USA). An average temperature during the adaptation period (days 0-6) was 4.3° C., and average temperatures during the experiment period were in the range of −6.2° C. to 4.2° C., relatively low compared to that of the adaptation period. In addition, an average temperature of the entire experiment period (days 7-48) was −1.0° C. Initial weight (day 0), intermediate weight (day 27), and end weight (day 48) of sentinel animals were measured, i.e., three times in total, before offering morning feed. The average daily gain (average daily weight gain, ADG) of the sentinel animals was calculated by dividing the differences in weight, between the initial weight and the intermediate weight and between the intermediate weight and the end weight, by the total number of days of the experiment.

[2] = tested on: Korean native steers; assay: Feed intake according to NALT feeding under cold stress conditions; details: for Feed intake: 0.1% NALT
Source text: (§1) After grouping the animals by statistical analysis of initial body weights, the animals were bred in 1.0×1.5 m^2 individual pens during the experiment period. The feed was offered based on an amount of dry matter of daily total mixed ration (TMR) per head. After 7 days of an adaptation period for N-acetyl-L-tryptophan (NALT), a mixture of 0.1% N-acetyl-L-tryptophan (NALT) and the total mixed ration was fed to individual animals every morning at 8 a.m. for 6 weeks, and water was available ad libitum. Total amounts of L-tryptophan ingested by the control and NALT-treated group by feeding NALT were 7.37 g/day/head and 16.26 g/day/head, respectively. The experiment was performed such that the NALT-treated group ingested 8.89 g/day/head more L-tryptophan than that of the control. Meanwhile, results of growth performance analysis (body weight and average feed intake) and genetic analysis of loin tissue were obtained by statistically comparing and analyzing significant differences between the control and the NALT-treated group, and results of hematological analysis were obtained via statistical comparison and analysis depending on NALT treatment, experiment period (days), and interaction (treatment×days). These numerical values were expressed as average values, and a significance test was performed at the 5% level using Student's t-test by using the JMP 5.0 software package (SAS Institute Inc., Cary, NC, USA). Feed intake of each sentinel animal was calculated by measuring a total amount of feed offered and an amount left over every day.

[3] = tested on: genes related to muscle metabolism (MYF6, MyoD, and Desmin) and fat metabolism (PPARr, CEBPa, and FABP4) of the loin tissue; assay: Real-time PCR of gene expression related to loin tissue development under cold stress conditions
Source text: as §1, with “Samples of loin tissue of the sentinel animals were obtained at the final day of the experiment (day 48) using a biopsy gun for large animals (TNT Research Co., Ltd., Gyeonggi-do, Republic of Korea), added to a 2 mL tube, and incubated in liquid nitrogen gas. After extracting RNA from each tissue sample, real-time PCR was conducted to analyze expression levels of genes related to muscle metabolism (MYF6, MyoD, and Desmin) and fat metabolism (PPARr, CEBPa, and FABP4) of the loin tissue” for “Feed intake”, “animal.” for “sentinel animal was calculated by measuring a total amount of feed offered and an amount left over every day.”

[4] = 0.1% NALT, day 48, control = 1.000

CC(=O)N[C@@H](Cc1c[nH]c2ccccc12)C(=O)O [NALT, N-acetyl-L-tryptophan]
Decrease of feed conversion ratio compared to the control ([1]; 0.1% NALT in TMR): 63%
Feed conversion ratio of the NALT-treated group relative to the control ([1]; 0.1% NALT in TMR): 37%
Body weight ([1]; 0.1% NALT in TMR, Day 0 (initial weight)): 279.7 kg
Body weight ([1]; 0.1% NALT in TMR, Day 27): 301.5 kg
Feed conversion ratio ([1]; 0.1% NALT in TMR, Day 27): 13.3
ADG (average daily gain) ([1]; 0.1% NALT in TMR, Day 27 (day 0 to day 27)): 0.753 kg/day
Body weight ([1]; 0.1% NALT in TMR, Day 48): 315.7 kg
Feed conversion ratio ([1]; 0.1% NALT in TMR, Day 48): 4.82
ADG (average daily gain) ([1]; 0.1% NALT in TMR, Day 48 (day 27 to day 48)): 0.766 kg/day
Total weight change compared with the control ([1]; day 27 and day 48): no statistically significant difference
Feed intake ([2]; Days 0-6 (adaptation period)): 8.56 kg
Feed intake ([2]; Days 7-13): 9.21 kg
Feed intake ([2]; Days 7-48 (entire experiment period)): 9.86 kg
Feed intake ([2]; Days 14-20): 9.56 kg
Feed intake ([2]; Days 21-27): 9.68 kg
Feed intake ([2]; Days 28-34): 10.22 kg
Feed intake ([2]; Days 35-41): 10.02 kg
Feed intake ([2]; Days 42-48): 10.56 kg
Feed intake compared with the control ([2]; adaptation period (days 0-6)): No statistically significant difference
Feed intake compared with the control ([2]; days 7-41): no statistically significant difference
Increase in average feed intake per head compared to the control ([2]; days 7-48): about 4.6%
Increase in feed intake compared to the control ([2]; days 42-48): about 1.02 kg
Average feed intake per head ([2]; entire experiment period (days 7-48)): 9.86 kg/day/head
Expression of genes (MYF6, MyoD, and Desmin) related to muscle metabolism of loin tissue compared with the control [3]: did not show a statistically significant difference; also recorded: No statistically significant difference
Expression of genes (PPARr, CEBPa, and FABP4) related to fat metabolism of loin tissue compared with the control [3]: lower
CEBPa expression level in loin tissue [3, 4]: 0.293
Desmin expression level in loin tissue [3, 4]: 0.871
FABP4 expression level in loin tissue [3, 4]: 0.233
MYF6 expression level in loin tissue [3, 4]: 0.834
MyoD expression level in loin tissue [3, 4]: 0.857
PPARr expression level in loin tissue [3, 4]: 0.274
